# Laboratory results from patent publication US9227953B2, “Crystal form” (Glaxo Group Limited, priority 2011, dated 2016).
# Assays:
# Format in all cases: physicochemical
# [1] = relative thermodynamic stability of rilapladib crystal forms; conditions: compared with other crystalline forms of rilapladib
# [2] = chemical stability of the crystal form
# Dynamic Vapor Sorption = conditions: product of Example 1(d)
# Method: The product was characterized in several ways and determined to be the form termed Form 1 rilapladib. It provided an XRPD pattern as represented in FIG. 3, a Raman spectrum as represented in FIG. 4, and a capillary melting point of 116-118° C.
Compound,thermodynamic stability [1],chemical stability [2],hygroscopicity by Dynamic Vapor Sorption (Dynamic Vapor Sorption)
"COCCN1CCC(N(Cc2ccc(-c3ccc(C(F)(F)F)cc3)cc2)C(=O)Cn2c(SCc3cccc(F)c3F)cc(=O)c3ccccc32)CC1 [rilapladib Form 3, N-[1-(2-methoxyethyl)-piperidin-4-yl]-2-[2-(2,3-difluorobenzylthio)-4-oxo-4H-quinolin-1-yl]-N-(4′-trifluoromethylbiphenyl-4-ylmethyl)acetamide]",more thermodynamically stable than Form 1 and Form 2,very good chemical stability,–
"COCCN1CCC(N(Cc2ccc(-c3ccc(C(F)(F)F)cc3)cc2)C(=O)Cn2c(SCc3cccc(F)c3F)cc(=O)c3ccccc32)CC1 [Form 1 rilapladib, N-[1-(2-methoxyethyl)-piperidin-4-yl]-2-[2-(2,3-difluorobenzylthio)-4-oxo-4H-quinolin-1-yl]-N-(4′-trifluoromethylbiphenyl-4-ylmethyl)acetamide]",–,–,non-hygroscopic
